According to patent US12458630B2, “Combination therapy for cancer” (The Regents of the University of California, priority 2020, dated 2025):

What was measured:
MIA PaCa-2 cells [1] = assay: TMR-DEX macropinosome uptake assay; assay type: cell-based, human
Method: Cell imaging. Immunostaining was performed as described^44. Cells were cultured on coverslips and fixed in 4% PFA for 10 min at room temperature. After washing twice in PBS, cells were incubated in PBS containing 10% FBS to block nonspecific sites of antibody adsorption. The cells were then incubated with the appropriate primary antibodies (diluted 1:100) and secondary antibodies (diluted 1:500) in PBS containing 10% FBS with or without 0.1% saponin. For cell macropinosome visualization, 24 hrs after seeding, the cells were serum starved for 18 hrs. Macropinosomes were marked using a high-molecular-mass (70 KD) TMR-Dextran (Invitrogen)-uptake assay, wherein TMR-DEX was added to serum-free medium at a final concentration of 1 mg/ml for 30 min at 37° C. At the end of the incubation period, the cells were rinsed five times in cold PBS and immediately fixed in 4% PFA. For tissue macropinosome visualization^45, fresh pancreata were cut into pieces with an approximate 5-mm cuboidal shape. A tissue section was placed in a 24-well plate and injected 150 μL of 10 mg/ml TMR-DEX solution directly into the tissue piece. Another 250 μL of diluted TMR-DEX solution were added to the well to immerse the tissue section. The plate was incubated in the dark for 15 min at room temperature. Then the tissue section was rinsed twice in PBS before embedding in O.C.T. compound in a prelabeled cryomold. Specimens were frozen on dry ice and stored at −80° C. for further processing. Immunostaining was performed as described above. Images were captured using a TCS SPE Leica confocal microscope (Leica, Germany).
In some embodiments, Immunostaining was performed as described (Su et al., 2017). Cells were cultured on coverslips and fixed in 4% PFA for 10 min at room temperature or methanol for 10 min at −20° C. After washing twice in PBS, cells were incubated in PBS containing 10% FBS to block nonspecific sites of antibody adsorption. The cells were then incubated with the appropriate primary antibodies (diluted 1:100) and secondary antibodies (diluted 1:500) in PBS containing 10% FBS with or without 0.1% saponin. For cell macropinosome visualization, 24 hrs after seeding, the cells were serum starved for 18 hrs. Macropinosomes were marked using a high-molecular-mass (70 KDa) TMR-DEX (Invitrogen)-uptake assay, wherein TMR-DEX was added to serum-free medium at a final concentration of 1 mg/ml for 30 min at 37° C. At the end of the incubation period, the cells were rinsed five times in cold PBS and immediately fixed in 4% PFA. For tissue macropinosome visualization (Lee et al., 2019), fresh pancreata were cut into pieces with an approximate 5-mm cuboidal shape. Tissue fragments were placed in a 24-well plate and injected with 150 μL of 10 mg/ml TMR-DEX solution. Another 250 μL of diluted TMR-DEX solution were added to the well to immerse the tissue fragment. The plate was incubated in the dark for 15 min at room temperature. Then the tissue fragments were rinsed twice in PBS before embedding in O.C.T. compound in a prelabeled cryomold. Specimens were frozen on dry ice and stored at −80° C. for further processing. Immunostaining was performed as described above. Images were captured using a TCS SPE Leica confocal microscope (Leica, Germany).
Quantification and statistics. To quantify the number of LC3 puncta, a total of 30 cells were recorded and analyzed using the LAS X measurement program on the TCS SPE Leica. Macropinosomes were quantified by using the ‘Analyze Particles’ feature in ImageJ (National Institutes of Health). Macropinocytic uptake index was computed by determining the total macropinosome area in relation to the total cell area for each field and then by determining the average across all the fields (at least 6 fields). These measurements were done on randomly-selected fields of view. Two-tailed unpaired Student's t test was performed for statistical analysis using GraphPad Prism software. […]

MIA PaCa-2 cells [2] = assay: LC3 puncta / LC3-LAMP1 immunofluorescence; assay type: cell-based, human; conditions: MIA PaCa-2 cells, 10, 20, 40, 80 μM HCQ
Method: Cell imaging. Immunostaining was performed as described^44. Cells were cultured on coverslips and fixed in 4% PFA for 10 min at room temperature. After washing twice in PBS, cells were incubated in PBS containing 10% FBS to block nonspecific sites of antibody adsorption. The cells were then incubated with the appropriate primary antibodies (diluted 1:100) and secondary antibodies (diluted 1:500) in PBS containing 10% FBS with or without 0.1% saponin. For cell macropinosome visualization, 24 hrs after seeding, the cells were serum starved for 18 hrs. Macropinosomes were marked using a high-molecular-mass (70 KD) TMR-Dextran (Invitrogen)-uptake assay, wherein TMR-DEX was added to serum-free medium at a final concentration of 1 mg/ml for 30 min at 37° C. At the end of the incubation period, the cells were rinsed five times in cold PBS and immediately fixed in 4% PFA. For tissue macropinosome visualization^45, fresh pancreata were cut into pieces with an approximate 5-mm cuboidal shape. […]
Quantification and statistics. To quantify the number of LC3 puncta, a total of 30 cells were recorded and analyzed using the LAS X measurement program on the TCS SPE Leica. Macropinosomes were quantified by using the ‘Analyze Particles’ feature in ImageJ (National Institutes of Health). […]

MIA PaCa-2 cells [3] = assay: Immunoblot of p62 and LC3 (autophagic degradation); assay type: cell-based, human; conditions: MIA PaCa-2 cells, 10-40 μM HCQ
Method: Autophagy Induction. […] For starvation, cells were incubated in starvation medium (20 mM HEPES pH 7.4, 140 mM NaCl, 1 mM CaC2, 1 mM MgCl2, and 1% BSA) for 1.5 or 2 hrs. For glucose starvation, cells were washed three times with PBS and incubated in glucose-free DMEM containing 10% dialyzed FBS for 4 hrs. Immunoblot and immunoprecipitation. Cells were harvested and lysed in RIPA buffer (50 mM Tris-HCl, pH 7.4, 150 mM NaCl, 1% Triton X-100, 1% Na deoxycholate, 0.1% SDS, 1 mM EDTA) supplemented with complete protease inhibitor cocktail. Proteins were resolved on SDS-polyacrylamide gels, and then transferred to a polyvinylidene difluoride membrane. After blocking with 5% (w/v) fat free milk, the membrane was stained with the corresponding primary antibodies followed by incubation with the appropriate secondary HRP-conjugated antibodies, and development with ECL. Immunoreactive bands were detected by automatic X-ray film processor or KwikQuant Imager.

MIA PaCa-2 cells [4] = assay: Cell viability assay (CCK-8); assay type: cell-based, human
Method: Cell viability assay. Cell viability was determined with Cell Counting Kit-8 assay (CCK-8 assay kit, Glpbio). Cells were plated in 96-well plates at a density of 3000 cells (MIA PaCa-2) or 1500 cells (KC6141) per well and incubated overnight prior to treatment. EIPA (10 μM), MRT68921 (600 nM) or erlotinib (2 μM, Sigma) were added to the wells for 72 and 96 hrs. Next, 10 μL of CCK-8 was added to each well. The optical density was read at 450 nm using a microplate reader (FilterMax F5, Molecular Devices, USA) at day 0, 1, 2, 3, and 4. For glutamine-deprivation assays, cells in 96-well plates were rinsed briefly in PBS and incubated in the 0.2 mM glutamine. Glutamine-free DMEM medium was supplemented with 0.2 mM glutamine in the presence of 10% dialysed FBS and 25 mM HEPES. For some conditions, the medium was supplemented with a final concentration of 2% BSA (Fraction V, fatty-acid-, nuclease and protease-free, Calbiochem). For all experiments, media were replaced every 24 hrs. Viable cell counts were obtained using CCK-8 assay described as above.
(§1) In some embodiments, cells were plated in 96-well plates coated with or without ECM at a density of 3000 cells (MIA PaCa-2, 1444, 1305, COLO 357/FG) or 1500 cells (KC6141) per well and incubated overnight prior to treatment. EIPA (10.5 μM), IPI549 (600 nM), MBQ-167 (500 nM), MRT68921 (600 nM) or erlotinib (2 μM, Sigma), ML385 (10 μM, Sigma), HCQ (10 μM or 80 μM) or their combinations were added to the wells for 24, 72 or 96 hrs. Next, 10 μL of CCK-8 was added to each well. The optical density was read at 450 nm using a microplate reader (FilterMax F5, Molecular Devices, USA) at day 0, 1, 2, 3, and 4. For glutamine-deprivation assays, cells in 96-well plates were rinsed briefly in PBS and incubated in the 0.2 mM glutamine. Glutamine-free DMEM medium was supplemented with 0.2 mM glutamine in the presence of 10% dialyzed FBS and 25 mM HEPES. For glucose-deprivation assays, cells in 96-well plates were rinsed briefly in PBS and incubated in the 0.5 mM glucose. Glucose-free DMEM medium was supplemented with 0.5 mM glucose in the presence of 10% dialyzed FBS and 25 mM HEPES. For some conditions, the medium was supplemented with a final concentration of 2% BSA (Fraction V, fatty-acid-, nuclease and protease-free, Calbiochem). For all experiments, media were replaced every 24 hrs. Viable cell counts were obtained using CCK-8 assay described as above.

BxPC3 cells = assay: TMR-DEX macropinosome uptake assay; assay type: cell-based, human; conditions: WT and IKKα KO BxPC3 cells (WT KRAS), ML385 10 μM, 24 hrs
Method: Cell imaging. […] Cells were cultured on coverslips and fixed in 4% PFA for 10 min at room temperature. After washing twice in PBS, cells were incubated in PBS containing 10% FBS to block nonspecific sites of antibody adsorption. The cells were then incubated with the appropriate primary antibodies (diluted 1:100) and secondary antibodies (diluted 1:500) in PBS containing 10% FBS with or without 0.1% saponin. For cell macropinosome visualization, 24 hrs after seeding, the cells were serum starved for 18 hrs. […] At the end of the incubation period, the cells were rinsed five times in cold PBS and immediately fixed in 4% PFA. For tissue macropinosome visualization^45, fresh pancreata were cut into pieces with an approximate 5-mm cuboidal shape. […]
In some embodiments, to quantify LC3 puncta or LC3-LAMP1 co-localization, a total of 30 cells were recorded and analyzed using the LAS X measurement program on the TCS SPE Leica. Macropinosomes were quantified by using the ‘Analyze Particles’ feature in Image J (National Institutes of Health). […]

[5] = test system: 1305 primary human PDAC cells; assay: Cell viability assay (CCK-8); assay type: cell-based; conditions: IKKα^low 1305 cells, 3 days
Method: as §1

MP-related proteins = assay: Immunoblot of MP-related proteins in BxPC3 cells; assay type: cell-based, human; conditions: WT and IKKα KO BxPC3 cells, ML385 10 μM, 24 hrs
Method: Immunoblot and immunoprecipitation. Cells were harvested and lysed in RIPA buffer (50 mM Tris-HCl, pH 7.4, 150 mM NaCl, 1% Triton X-100, 1% Na deoxycholate, 0.1% SDS, 1 mM EDTA) supplemented with complete protease inhibitor cocktail. Proteins were resolved on SDS-polyacrylamide gels, and then transferred to a polyvinylidene difluoride membrane. After blocking with 5% (w/v) fat free milk, the membrane was stained with the corresponding primary antibodies followed by incubation with the appropriate secondary HRP-conjugated antibodies, and development with ECL. Immunoreactive bands were detected by automatic X-ray film processor or KwikQuant Imager.

Row | SMILES | disruption of MP (MIA PaCa-2 cells [1]; 10 μM HCQ, inferred from lack of synergy with MRT68921) | degradation of MP (DQ-BSA in TMR-DEX macropinosomes) (MIA PaCa-2 cells [1]; MIA PaCa-2 cells, 10, 20, 40, 80 μM HCQ) | MP (TMR-DEX and DQ-BSA co-localization, MP-related protein expression) (MIA PaCa-2 cells [1]; MIA PaCa-2 cells, 10-40 μM HCQ) | MP inhibition (MIA PaCa-2 cells [1]; MIA PaCa-2 cells, HCQ 10-80 μM) | LC3-LAMP1 colocalization (MIA PaCa-2 cells [2]) | autophagic degradation (LC3-II, p62, lysosomal LC3 retention) (MIA PaCa-2 cells [3]) | synergy in growth inhibition with EIPA or ML385 (MIA PaCa-2 cells [4]; HCQ 10 μM combined with EIPA or ML385) | synergy in growth inhibition with MRT68921 (MIA PaCa-2 cells [4]; HCQ 10 μM combined with MRT68921) | cell growth (MIA PaCa-2 cells [4]; WT and IKKα^Δ MIA PaCa-2 cells, 80 μM HCQ, 3 days) | cell viability (total viable cells relative to vehicle) (MIA PaCa-2 cells [4]; WT and IKKα^Δ MIA PaCa-2 cells, 10 or 80 μM HCQ, 3 days) | TMR-DEX uptake increased by IKKα ablation (BxPC3 cells) | sensitivity to single agent (cell viability) [5] | MP-related protein expression increased by IKKα ablation (MP-related proteins)
1 | CCN(CCO)CCCC(C)Nc1ccnc2cc(Cl)ccc12 (stereo not shown) [HCQ, hydroxychloroquine] | barely disrupted MP | induced the degradation of MP at 10 μM, 20 μM, 40 μM, but not at 80 μM | stimulated MP | inhibited MP only at 80 μM | enhanced LC3-LAMP1 colocalization in a concentration-dependent manner | inhibited autophagic degradation | synergized | did not synergize | inhibited cell growth | suppression of cell viability | – | – | –
2 | Cc1ccccc1C(=O)N1CCc2cc(-c3nc(NC(=O)Cc4ccc5c(c4)OCO5)sc3C)ccc21 [ML385] | – | – | – | – | – | – | – | – | – | – | blocked this effect | very sensitive | blocked this effect
